Assay results from US12281126B2, “Inhibitors of cyclin-dependent kinase 7 and uses thereof” (Dana-Farber Cancer Institute, Inc., priority 2018, dated 2025).

What was measured:
Assay type in all cases: biochemical
[1] = target: CDK7 (Homo sapiens (Human), UniProt P50613); assay: Invitrogen CDK7 assay, inhibition of CDK7; settings: co-factors cyclin H and MNAT1; read-out: IC50 against CDK7
Description: (§1) Compounds of the disclosure were assayed using Invitrogen CDK7 assay against a variety of kinases. Exemplary results are presented as IC50 values (see Table 1 and Table 2). The co-factors used for each kinase in the assays were as follows: CDK7: cyclin H and MNAT1; CDK2: cyclin A; CDK9: cyclin T1.

[2] = target: CDK2 (Homo sapiens (Human), UniProt P24941); assay: Invitrogen kinase assay, inhibition of CDK2; settings: co-factor cyclin A; read-out: IC50 against CDK2
Description: as §1

[3] = target: CDK9 (Homo sapiens (Human), UniProt P50750); assay: Invitrogen kinase assay, inhibition of CDK9; settings: co-factor cyclin T1; read-out: IC50 against CDK9
Chain of CDK9 (P50750 whole entry): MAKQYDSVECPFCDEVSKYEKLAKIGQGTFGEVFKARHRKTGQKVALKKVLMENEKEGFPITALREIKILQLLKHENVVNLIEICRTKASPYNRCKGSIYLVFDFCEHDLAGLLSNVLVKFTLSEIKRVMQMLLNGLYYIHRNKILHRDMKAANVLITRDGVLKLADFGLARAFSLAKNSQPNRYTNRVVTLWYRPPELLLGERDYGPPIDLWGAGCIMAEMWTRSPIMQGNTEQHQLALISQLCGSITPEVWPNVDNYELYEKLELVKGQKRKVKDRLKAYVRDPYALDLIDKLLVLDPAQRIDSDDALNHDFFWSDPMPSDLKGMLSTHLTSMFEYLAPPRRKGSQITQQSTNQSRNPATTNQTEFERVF
Chain of CDK9 (O60563 whole entry partner): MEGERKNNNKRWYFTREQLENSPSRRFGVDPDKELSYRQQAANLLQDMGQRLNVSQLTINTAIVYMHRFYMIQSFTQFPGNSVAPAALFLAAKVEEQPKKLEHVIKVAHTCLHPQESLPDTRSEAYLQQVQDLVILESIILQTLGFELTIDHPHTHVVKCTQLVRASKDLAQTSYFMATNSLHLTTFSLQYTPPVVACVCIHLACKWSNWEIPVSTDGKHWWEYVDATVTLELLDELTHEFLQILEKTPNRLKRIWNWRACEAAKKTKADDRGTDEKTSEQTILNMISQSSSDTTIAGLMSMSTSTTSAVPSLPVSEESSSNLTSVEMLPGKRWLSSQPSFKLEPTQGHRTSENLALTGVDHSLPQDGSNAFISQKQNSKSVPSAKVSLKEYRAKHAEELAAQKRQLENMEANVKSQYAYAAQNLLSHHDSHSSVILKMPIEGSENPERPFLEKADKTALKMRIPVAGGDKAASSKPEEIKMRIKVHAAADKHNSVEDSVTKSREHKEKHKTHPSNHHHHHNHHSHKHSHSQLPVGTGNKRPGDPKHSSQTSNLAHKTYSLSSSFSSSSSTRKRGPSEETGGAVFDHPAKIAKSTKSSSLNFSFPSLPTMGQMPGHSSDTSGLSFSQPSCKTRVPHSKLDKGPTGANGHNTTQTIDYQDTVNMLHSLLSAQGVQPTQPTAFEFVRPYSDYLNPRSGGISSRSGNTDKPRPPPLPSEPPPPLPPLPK
Description: as §1

Chain of CDK7 (P50613 whole entry): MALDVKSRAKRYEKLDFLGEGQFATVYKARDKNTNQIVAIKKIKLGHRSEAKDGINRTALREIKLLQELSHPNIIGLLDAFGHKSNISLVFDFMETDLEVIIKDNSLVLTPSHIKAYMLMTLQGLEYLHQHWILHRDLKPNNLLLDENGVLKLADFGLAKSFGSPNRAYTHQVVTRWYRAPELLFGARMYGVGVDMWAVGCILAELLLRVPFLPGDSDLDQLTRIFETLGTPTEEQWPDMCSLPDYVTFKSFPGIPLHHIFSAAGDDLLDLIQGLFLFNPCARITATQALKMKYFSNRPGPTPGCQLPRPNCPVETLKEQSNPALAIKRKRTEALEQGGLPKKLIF
Chain of CDK7 (P51946 whole entry partner): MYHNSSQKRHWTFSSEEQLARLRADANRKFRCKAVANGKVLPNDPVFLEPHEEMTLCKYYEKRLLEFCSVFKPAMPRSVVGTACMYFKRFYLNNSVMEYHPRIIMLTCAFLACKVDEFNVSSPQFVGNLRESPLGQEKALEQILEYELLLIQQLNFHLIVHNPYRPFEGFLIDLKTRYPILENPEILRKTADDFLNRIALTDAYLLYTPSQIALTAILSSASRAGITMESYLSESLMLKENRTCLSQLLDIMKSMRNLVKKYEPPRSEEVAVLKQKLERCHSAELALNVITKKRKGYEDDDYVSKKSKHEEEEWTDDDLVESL
Chain of CDK7 (P51948 whole entry partner): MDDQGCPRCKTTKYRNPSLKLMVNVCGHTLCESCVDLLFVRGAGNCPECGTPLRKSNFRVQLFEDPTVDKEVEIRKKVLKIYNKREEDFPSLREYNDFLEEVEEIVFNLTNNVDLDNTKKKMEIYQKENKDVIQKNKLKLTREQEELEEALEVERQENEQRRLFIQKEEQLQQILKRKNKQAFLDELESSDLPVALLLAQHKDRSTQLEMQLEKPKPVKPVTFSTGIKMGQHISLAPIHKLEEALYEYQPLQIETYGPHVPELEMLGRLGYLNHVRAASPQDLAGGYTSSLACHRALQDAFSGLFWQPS

SMILES	IC50 [1] [nM]	IC50 [2] [µM]	IC50 [3] [µM]
C=CC(=O)Nc1ccc(C(=O)Nc2n[nH]c3c2CN(C(=O)NC2(CN(C)C)CC2)C3(C)C)cc1 [Compound 065, 3-(4-acrylamidobenzamido)-N-(1-((dimethylamino)methyl)cyclopropyl)-6,6-dimethyl-4,6-dihydropyrrolo[3,4-c]pyrazole-5(1H)carboxamide]	61.1	> 10	> 10
Cc1nc(Nc2n[nH]c3c2CN(C(=O)N[C@H](CN(C)C)C2CCOCC2)C3(C)C)c2sccc2n1 [Compound 201, (S)—N-(2-(dimethylamino)-1-(tetrahydro-2H-pyran-4-yl)ethyl)-6,6-dimethyl-3-((2-methylthieno[3,2-d]pyrimidin-4-yl)amino)-4,6-dihydropyrrolo[3,4-c]pyrazole-5(1H)-carboxamide]	39.1	> 10	> 10
C=CC(=O)Nc1cccc2c(Nc3n[nH]c4c3CN(C(=O)N[C@H](CN(C)C)C3CCOCC3)C4(C)C)nccc12 [Compound 203, (S)-3-((5-acrylamidoisoquinolin-1-yl)amino)-N-(2-(dimethylamino)-1-(tetrahydro-2H-pyran-4-yl)ethyl)-6,6-dimethyl-4,6-dihydropyrrolo[3,4-c]pyrazole-5(1H)-carboxamide]	214	> 10	> 10
C=CC(=O)Nc1ccc(Nc2n[nH]c3c2CN(C(=O)N[C@H](CN(C)C)C2CCOCC2)C3(C)C)nc1 [Compound 204, (S)-3-((5-acrylamidopyridin-2-yl)amino)-N-(2-(dimethylamino)-1-(tetrahydro-2H-pyran-4-yl)ethyl)-6,6-dimethyl-4,6-dihydropyrrolo[3,4-c]pyrazole-5(1H)-carboxamide]	407	> 10	> 10
C=CC(=O)Nc1cnc(Nc2n[nH]c3c2CN(C(=O)N[C@H](CN(C)C)C2CCOCC2)C3(C)C)nc1 [Compound 206, (S)-3-((5-acrylamidopyrimidin-2-yl)amino)-N-(2-(dimethylamino)-1-(tetrahydro-2H-pyran-4-yl)ethyl)-6,6-dimethyl-4,6-dihydropyrrolo[3,4-c]pyrazole-5(1H)-carboxamide]	732	> 10	> 10
CN(C)C[C@@H](NC(=O)N1Cc2c(Nc3ccnc(C(F)(F)F)n3)n[nH]c2C1(C)C)C1CCOCC1 [Compound 208, (S)—N-(2-(dimethylamino)-1-(tetrahydro-2H-pyran-4-yl)ethyl)-6,6-dimethyl-3-((2-(trifluoromethyl)pyrimidin-4-yl)amino)-4,6-dihydropyrrolo[3,4-c]pyrazole-5(1H)-carboxamide]	10.8	4.52	> 10
C=CC(=O)Nc1ccc(Nc2n[nH]c3c2CN(C(=O)N[C@H](CN(C)C)C2CCOCC2)C3(C)C)cc1 [Compound 209, (S)-3-((4-acrylamidophenyl)amino)-N-(2-(dimethylamino)-1-(tetrahydro-2H-pyran-4-yl)ethyl)-6,6-dimethyl-4,6-dihydropyrrolo[3,4-c]pyrazole-5(1H)-carboxamide]	3310	> 10	> 10
C=CC(=O)Nc1ccc(C(=O)Nc2n[nH]c3c2CN(C(=O)N[C@H]2CCCN(C)C2)C3(C)C)cc1 [Compound 210, (S)-3-(4-acrylamidobenzamido)-6,6-dimethyl-N-(1-methylpiperidin-3-yl)-4,6-dihydropyrrolo[3,4-c]pyrazole-5(1H)-carboxamide]	48.4	0.161	1.74

Further molecules by falling IC50 [1], results first:

IC50 [1] [nM]	IC50 [2] [µM]	IC50 [3] [µM]	SMILES
190	> 10	1.06	C=CC(=O)Nc1ccc(C(=O)Nc2n[nH]c3c2CN(C(=O)NC(CN(C)C)C2CCOC2)C3(C)C)cc1 (stereo not drawn) [Compound 079, 3-(4-acrylamidobenzamido)-N-(2-(dimethylamino)-1-(tetrahydrofuran-3-yl)ethyl)-6,6-dimethyl-4,6-dihydropyrrolo[3,4-c]pyrazole-5(1H)-carboxamide]
69	> 1.11	> 10	C=CC(=O)Nc1ccc2c(Nc3n[nH]c4c3CN(C(=O)N[C@H](CN(C)C)C3CCOCC3)C4(C)C)nccc2c1 [Compound 202, (S)-3-((6-acrylamidoisoquinolin-1-yl)amino)-N-(2-(dimethylamino)-1-(tetrahydro-2H-pyran-4-yl)ethyl)-6,6-dimethyl-4,6-dihydropyrrolo[3,4-c]pyrazole-5(1H)-carboxamide]
18.5	> 10	> 10	Cc1nc(Nc2n[nH]c3c2CN(C(=O)N[C@H](CN(C)C)C2CCOCC2)C3(C)C)c2ccsc2n1 [Compound 200, (S)—N-(2-(dimethylamino)-1-(tetrahydro-2H-pyran-4-yl)ethyl)-6,6-dimethyl-3-((2-methylthieno[2,3-d]pyrimidin-4-yl)amino)-4,6-dihydropyrrolo[3,4-c]pyrazole-5(1H)-carboxamide]
15.4	3.41	> 10	C=CC(=O)Nc1ccc(C(=O)Nc2n[nH]c3c2CN(C(=O)NC2CN(C)Cc4ccccc42)C3(C)C)cc1 (stereo not drawn) [Compound 207, 3-(4-acrylamidobenzamido)-6,6-dimethyl-N-(2-methyl-1,2,3,4-tetrahydroisoquinolin-4-yl)-4,6-dihydropyrrolo[3,4-c]pyrazole-5(1H)-carboxamide]
12.8	> 0.37	4.01	C=CC(=O)Nc1ccc(C(=O)Nc2n[nH]c3c2CN(C(=O)N[C@H](CN(C)C)C2CCOCC2)C3(C)C)cc1 [Compound 205, (S)-3-(4-acrylamidobenzamido)-N-(2-(dimethylamino)-1-(tetrahydro-2H-pyran-4-yl)ethyl)-6,6-dimethyl-4,6-dihydropyrrolo[3,4-c]pyrazole-5(1H)-carboxamide]
